{
  "source": "patent US6090987A",
  "about": "“Metal-ligand complex catalyzed processes” (Union Carbide Chemicals & Plastics Technology Corporation, priority 1998, dated 2000)",
  "key": {"[1]": {"assay": "Residual propylene hydroformylation activity after heat treatment, Ligand D catalyst (Table 1)", "details": "125° C./50 hours, excess diene checked", "description": "About 20 milliliters of the solution was charged to a glass reactor via a syringe after purging the reactor with nitrogen (see Examples 14-20 below). After closing the reactor, the system was again purged with nitrogen and place in an oil bath heated to 100° C. The hydroformylation reaction in each experiment was conducted at a total gas pressure of 160 psig. The target partial pressure of hydrogen, carbon monoxide, and propylene being about 45 psia, 45 psia, and 5 psia respectively, with the remainder being nitrogen. The flows of the feed gases (carbon monoxide, hydrogen, propylene, and nitrogen) were controlled individually with mass flow meters. The feed gases were dispersed into the precursor solution via stainless steel 7-micron filters used as spargers. The unreacted portion of the feed gases stripped out the product aldehydes. Each experiment was operated for 24 hours under the above conditions. The activity is defined as the observed reaction rate divided by the predicted reaction rate. The reaction rates are expressed in terms of gram moles per liter per hour.\nThe same procedure as in Example 3 was followed except 2 milliliters of 1,3-butadiene was added to the generated catalyst and stirred for 5 minutes. Excess 1,3-butadiene was then removed by alternate evacuation and flushing with nitrogen. The resulting solution was heated at 125° C. as in Example 2, and 20 milliliters of the resulting solution was transferred to a glass reactor as in Example 2 and the activity determined.\nThe same procedure as in Example 4 was followed except Ligand D (as identified herein) was employed in place of Ligand F. The results are given in Table 1.\nThe same procedure as in Example 10 was followed except the fresh catalyst solution contained Ligand D in place of Ligand F. The results are given in Table 1."}, "[2]": {"assay": "Long term catalyst stability, cycling between hydroformylation and simulated vaporizer conditions (Table 2, FIG. 2)", "details": "for Percent Deactivation/Day: butadiene 2 psi", "description": "A series of long term catalyst stability experiments were conducted in the glass reactors in a continuous propylene hydroformylation mode. The reactor consisted of a three ounce pressure bottle submersed in an oil bath with a glass front for viewing. In each example about 20 milliliters of a freshly prepared rhodium catalytic precursor solution was charged to the reactor with a syringe after purging the system with nitrogen. Each precursor solution contained 200 parts per million of rhodium (calculated as free rhodium) introduced as rhodium dicarbonyl acetylacetonate, Ligand F and tetraglyme. The amount of Ligand F (free) employed was 0.4 weight percent.\nAfter closing the reactor, the system was again purged with nitrogen and the oil bath was heated to 80° C., in order to furnish the desired hydroformylation. The hydroformylation reaction in each experiment was conducted at a total gas pressure of about 165 psig, the target partial pressure pressures of hydrogen, carbon monoxide, and propylene being about 45 psia, 45 psia, and 5 psia, respectively, the remainder being nitrogen. The flows of the feed gases (carbon monoxide, hydrogen, propylene, and nitrogen) were controlled individually with mass flow meters. The feed gases were dispersed into the precursor solution via stainless steel 7-micron filters used as spargers. The unreacted portion of the feed gases stripped out the product aldehydes. Examples 14, 15 and 16 were conducted at 80° C. for 2 hours. The feed gases were then turned off and either pure nitrogen or an 88 mole percent nitrogen, 12 mole percent butadiene mixture was fed to the reactor (see Table 2). The pressure of the reactor was then let down to the appropriate pressure so that the target butadiene pressure in the reactor could be achieved. The oil bath temperature was then ramped to 125° C. over a 5 minute period. The bath remained at 125° C. for 10 minutes. The bath was then cooled to 80° C. over a 6 minute period. […]"}, "[3]": {"assay": "Decomposition of free Ligand F and deactivated complex formation at 145° C. by HPLC (FIG. 3)", "assay_type": "physicochemical", "details": "for deactivated complex concentration / free Ligand F concentration: 45 psig, treated with 1 ml 1,3-butadiene", "description": "A catalyst solution (5 milliliters), 600 parts per million in rhodium and 0.8 weight percent in Ligand F generated as in Example 2 was charged to a 3 ounce Fisher Porter bottle and alternately flushed evacuated with nitrogen, then placed in a 145° C. oil bath under nitrogen (80 psig total pressure) and then monitored by HPLC at 1 and 3 hours for the Ligand F and deactivated complex concentrations. The free Ligand F concentration was 0.75, 0.57 and 0.37 weight percent at 0, 1 and 3 hours, respectively, while the deactivated complex concentration was 0.010, 0.57 and 0.89 weight percent at 0, 1 and 3 hours respectively.\nThe same procedure as in Example 21 was followed except the catalyst solution was treated with 1 milliliter of 1,3-butadiene and then heated at 145° C. for 3 hours (45 psig total pressure). The free Ligand F concentration measured by HPLC (high pressure liquid chromatography) was 0.75, 0.66, and 0.62 weight percent at 0, 1 and 3 hours, respectively, while the deactivated complex concentration was 0.010, 0.012, and 0.05 weight percent at 0, 1 and 3 hours respectively."}},
  "data": [
    {"smiles": "C=CC=C", "note": "[Butadiene, 1,3-butadiene]", "values": [
      {"measurement": "% Activity", "setting": "[1]", "value": 116, "unit": "%"},
      {"measurement": "Final Rate", "setting": "[1]", "value": "1.23 gram moles per liter per hour"},
      {"measurement": "influence on the catalyst (FIG. 2)", "setting": "[2]; cycling between 80° C. hydroformylation and 125° C. simulated vaporizer", "value": "stabilizing influence"},
      {"measurement": "Percent Deactivation/Day", "setting": "[2]; separation temperature 125° C., butadiene/Rh molar ratio 45", "value": 5, "unit": "Percent/Day"},
      {"measurement": "Percent Deactivation/Day", "setting": "[2]; separation temperature 135° C., butadiene/Rh molar ratio 55", "value": 5, "unit": "Percent/Day"},
      {"measurement": "deactivated complex concentration", "setting": "[3]; 0 hours", "value": 0.010, "unit": "weight percent"},
      {"measurement": "free Ligand F concentration", "setting": "[3]; 0 hours", "value": 0.75, "unit": "weight percent"},
      {"measurement": "deactivated complex concentration", "setting": "[3]; 1 hour", "value": 0.012, "unit": "weight percent"},
      {"measurement": "free Ligand F concentration", "setting": "[3]; 1 hour", "value": 0.66, "unit": "weight percent"},
      {"measurement": "deactivated complex concentration", "setting": "[3]; 3 hours", "value": 0.05, "unit": "weight percent"},
      {"measurement": "free Ligand F concentration", "setting": "[3]; 3 hours", "value": 0.62, "unit": "weight percent"},
      {"measurement": "decomposition of free Ligand F (FIG. 3)", "setting": "[3]; prior complexation of catalyst with butadiene", "value": "suppresses decomposition of free Ligand F"}
    ]}
  ]
}
